{
  "source": "patent EP1060182B1",
  "about": "“NOVEL PRODRUGS FOR PHOSPHORUS-CONTAINING COMPOUNDS” (Metabasis Therapeutics, Inc., priority 1998, dated 1999)",
  "key": {"isolated rat hepatocytes [1]": {"tested_on": "isolated rat hepatocytes", "experiment": "Activation to parent compound in isolated rat hepatocytes (Example I)", "format": "cell-based", "conditions": "100 µM prodrug", "excerpt": "An ODS column was used for analysis. […] Detection was at 310 nm."}, "[2]": {"experiment": "Delivery of parent compound to liver after intraperitoneal prodrug (Example U)", "format": "in vivo, rat", "conditions": "1.3 at 50 mg/kg i.p.; the last time point measured", "protocol": "Methods: 1.3 was dissolved in DMSO and administered intraperitoneally to fasted rats at a dose of 50 mg/kg. At various time points following drug administration, animals were anesthetized with halothane. The peritoneal cavity was then opened and a blood sample was obtained from the abdominal vena cava and the liver freeze-clamped and excised. Blood and liver samples were processed as described in Example P and analyzed for 6-Amino-9-neopentyl-8-(2-phosphonofuranyl)purine content as described in Example I."}, "[3]": {"experiment": "Stability in plasma (Example C)", "format": "in vitro ADME, rat", "conditions": "37°C, 5-8 hours, reverse phase HPLC", "description": "Methods: Compounds were incubated in plasma at 37°C, and aliqouts removed at appropriate time points over the course of 5-8 hours. The aliquots were extracted with 1.5 volumes of methanol and clarified by centrifugation. Supernatants were then evaporated to dryness and the residues reconstituted with 100 µL of isotonic saline and then analyzed by reverse phase HPLC."}, "[4]": {"tested_on": "microsomal fraction of human liver", "experiment": "Activation by human liver microsomes (Example E)", "format": "in vitro ADME", "protocol": "7.1, 1.3, and 30.1 were tested for conversion to their respective parent compounds by the microsomal fraction of human liver."}, "[5]": {"tested_on": "glucose production in isolated rat hepatocytes", "experiment": "Inhibition of glucose production in rat hepatocytes (Example J)", "format": "cell-based", "conditions": "Rattus norvegicus, Hepatocyte; 1 hour, lactate 10 mM / pyruvate 1 mM", "protocol": "Select prodrugs of FBPase inhibitors were tested for inhibition of glucose production in isolated rat hepatocytes.\nAfter a 10 minute equilibration period, lactate and pyruvate were added to 10 mM and 1 mM concentrations, respectively. Addition of gluconeogenic substrates was immediately followed by that of appropriate concentrations of test compound. After 1 hour, an aliquot (0.25 ml) was removed, transferred to an Eppendorf tube and centrifuged. The supernatant (50 µl) was then assayed for glucose content using a Glucose Oxidase kit (Sigma Chemical Co.) as per the manufacturer's instructions."}, "[6]": {"experiment": "Chemical stability in isotonic saline and phosphate buffer (Example A)", "format": "physicochemical"}, "[7]": {"experiment": "Oral bioavailability by urinary excretion method (Example M)", "format": "in vivo", "conditions": "rat, urine, parent compound, read-out: % OBAV Parent", "description": "The oral bioavailability of prodrugs of a variety ofphosphonic acid FBPase inhibitors was estimated by a urinary excretion method in rat.\nThe quantity of parent compound excreted into urine was determined by HPLC analysis. An ODS column eluted with a gradient from potassium phosphate buffer, pH 5.5 to acetonitrile was employed for these measurements. Detection was at 310-325 nm."}, "[8]": {"experiment": "Activation in tissue homogenates, tissue distribution (Example T)", "format": "in vitro ADME, rat", "conditions": "liver cytosol, which does not contain microsomes", "protocol": "30.1 is tested for activation in homogenates from various tissues to assess the specificity of liver activation.\nMethods: Rats are anaesthetized under halothane and tissues including liver, kidney, brain , heart, stomach, spleen, muscle, lung, and testis are excised and frozen in liquid nitrogen. Tissues are then homogenized in 1 to 3 volumes of 50 mM Tris/HCl, 154 mM KCl, 1 mM EGTA pH 7.4. The homogenate is centrifuged at 10,000 rpm and 4°C for 30 minutes and the supernatant recovered. Liver cytosol is prepared by centrifuging the liver crude extract for 1 hour at 40,000 rpm and 4°C. Reaction mixtures consist of 50 mM KH2PO4 pH 7.4, 13 mM glucose-6-phosphate, 2 mM NADP^+, 10 units of glucose-6-phosphate dehydrogenase, 100 µM 30.1 and tissue homogenate at a protein concentration of 8.5 mg/ml. Reactions are incubated at 37°C. Aliquots are taken after 0 and 1 hour of incubation, and extracted with 60 % methanol. The methanolic extracts are centrifuged at 14,000 rpm, and filtered prior to analysis by HPLC. The samples are loaded onto a YMC C8 column equilibrated with 0.1% TFA and eluted with a methanol gradient to 80%. The activation of 30.1 to ara-AMP is monitored at […]"}, "[9]": {"experiment": "Pharmacokinetics of 30.1 after intravenous dosing (Example N)", "format": "in vivo, rat", "conditions": "for half-life: 20 mg/kg", "protocol": "The pharmacokinetics of 30.1 were evaluated in the rat.\nMethods: 30.1 was administered at 20 mg/kg to fasted rats via the tail vein under light halothane anesthesia. At apropriate time points following drug administration, rats were re-anesthetized with halothane. The peritoneal cavity was then opened and a blood sample was obtained from the abdominal vena cava and the liver freeze-clamped and excised. Blood samples were briefly centrifuged and the plasma fraction was then extracted with 1.5 volumes of methanol, processed, and analyzed by HPLC as described in Example A. Liver samples were excised, frozed in liquid nitrogen, and then homogenized in 100% methanol. Liver extracts were then centrifuged at 14,000 rpm and the methanolic supernatants subsequently filtered and evaporated to dryness. Samples were resuspended in isotonic saline and analyzed by HPLC as described in Example A. Pharmacokinetic parameters were determined with the aid of WinNonLin version 1:1 (Scientific Consulting, Inc.) software. Renal excretions studies were performed as described in Example Q."}, "human liver microsomes": {"tested_on": "human liver microsomes", "experiment": "Identification of the p450 isozyme involved in activation, with specific p450 inhibitors (Example F)", "format": "in vitro ADME", "conditions": "250 µM prodrug, ketoconazole, furafylline, sulfaphenazole as inhibitors", "protocol": "Reactions were stopped by addition of methanol to a concentration of 60%, filtered (0.2 µM filter), and lyophilized. Samples were resuspended in HPLC buffer (10 mM phosphate pH 5.5, 2.5 mM octyl-triethyl-ammonium), loaded onto a YMC C8 HPLC column (250 x 4.6 mm), and eluted with a methanol gradient to 80%."}, "recombinant CYP3A4": {"tested_on": "recombinant CYP3A4", "experiment": "Activation by recombinant CYP3A4 (Example G)", "format": "in vitro ADME", "conditions": "30.1 at 250 µM, 37°C, NADPH dependent, linear for 30 minutes", "protocol": "Activation of 30.1 and 28.4 was evaluated in reactions containing microsomes from baculovirus-infected insect cells co-expressing recombinant CYP3A4 and cytochrome p450 reductase (Panvera Corp., Madison, WI).\nMethods: Reaction mixture composition was similar to that described in Example E. Reactions were terminated by addition of methanol to a final concentration of 60%, and products typically analyzed by HPLC with use of a YMC reverse phase C8 column (250 x 4.6 mm). […] The effluent was monitored at 254 nm."}, "[10]": {"experiment": "Liver ara-ATP and plasma/urine ara-hypoxanthine after intravenous dosing (Example O)", "format": "in vivo, rat", "protocol": "The temporal profile of ara-hypoxanthine and ara-ATP generation following intravenous administration of 30.1 and free ara-AMP was compared in the rat.\nMethod: 30.1 and ara-AMP (Sigma) were administered to normal, fasted rats intravenously (in saline) via tail vein catheters. At appropriate time points following drug a administration, animals were lightly anesthetized with halothane. The peritoneal cavity was then opened and a blood sample was obtained from the abdominal vena cava and the liver freeze-clamped and excised.\nThe blood samples were heparinized and plasma was prepared. Plasma samples (100 µL) were mixed with 4 N perchloric acid (40 µL), vortexed, and then clarified by centrifugation. The supernatants were analyzed for ara-hypoxanthine by HPLC with use of a Beckman Ultrasphere ODS column (4.6 x 150 mm). The column was eluted with 100 mM acetic acid at a flow rate of 1.0 mL/min. The eluent was monitored by UV absorbance at 254 nm.\nLivers were immediately homogenized in 3 volumes of 10% perchloric acid (w/w), and the extracts clarified by centrifugation at 2500 x g (5 minutes). The resulting supernatants were removed and neutralized with 0.3 volumes of 3M KOH/ 3M KHCO3. The neutralized liver extracts were then spun in an Eppendorf microfuge at 10,000 rpm (20 minutes, 4°C). The supernatants were analyzed for ara-ATP content by reverse phase HPLC (HP1050) using a Whatman Partisphere SA column (4.6 x 125 mm). A gradient from 0.3M ammonium phosphate buffer pH 3.5 to 0.8M ammonium phosphate pH 3.5 was run (1 ml/minute flow rate).\nRenal excretion of araH following i.v. administration of 30.1 or ara-AMP was determined as described in Example Q."}, "isolated rat hepatocytes [11]": {"tested_on": "isolated rat hepatocytes", "experiment": "Active drug metabolites formed after prodrug activation in isolated rat hepatocytes (Example K)", "conditions": "Dose 100 µM, time point 2h", "description": "Methods: Hepatocytes were prepared and incubated as described in Example I. 28.4 and 30.1 and their respective parent compounds, PMEA and ara-AMP, were dissolved in DMSO or methanol to yield 10 mM stock solutions, and then diluted into the cell suspension to yield a final concentration of 100 µM. At appropriate time points over the course of 2-4 hours, aliquots of the cell suspension were removed and spun through a silicon/mineral oil layer into 10% perchloric acid. The cell extracts in the acid layers were neutralized by the addition of 0.3 volumes of 3M KOH/3M KHCO3, and the extract was then centrifuged, filtered (0.2 micron filter) and loaded onto an anion exchange HPLC column equilibrated with 70% A (10 mM ammonium phosphate pH 3.5, 6% ETOH) and 30% B (1 M ammonium phosphate pH 3.5, 6% ETOH). Ara-ATP and PMEApp were eluted with a gradient to 80% B. Detection was at 254 nm."}, "[12]": {"experiment": "Preliminary 22-day toxicological evaluation, intraperitoneal (Example R)", "format": "in vivo, mouse", "conditions": "i.p. 10 and 100 mg/kg b.i.d. for 22 days, doses up to 200 mg/kg/d", "quoted_text": "Death and other obvious signs of toxicity such as weight loss, tremors, ruffling fur, hunching, prostration, diarrhea, lethargy, and hyperactivity were monitored."}},
  "note": "Values joined by “and” are separate entries in the source; they are usually repeats but may differ in a detail not shown here. Equal values may be shown once. “Also recorded” adds a separate entry of the source. Read-outs that look alike come from different tables or passages of the source.",
  "data": [
    {"smiles": "CC(C)(C)Cn1c(-c2ccc(P3(=O)OC4CC(O)CC(C4)O3)o2)nc2c(N)ncnc21", "note": "(single isomer, unassigned) [Compound 1.3, 6-Amino-8-(5'-hydroxyl-1',3' cyclohexyl)phosphonofuranyl-9-neopentyl purine]", "values": [
      {"measurement": "intrahepatocyte levels of parent compound 6-Amino-9-neopenhyl-8-(2-phosphonofuranyl)purine", "setting": "isolated rat hepatocytes [1]", "result": "similarly high levels"},
      {"measurement": "persistence of 6-Amino-9-neopentyl-8-(2-phosphonofuranyl)purine in plasma and liver", "setting": "[2]", "result": 4, "unit": "h"},
      {"measurement": "metabolism / degradation in fresh rat plasma", "setting": "[3]", "result": "no evidence of metabolism"},
      {"measurement": "rate of formation of parent compound", "setting": "[4]; 250 µM prodrug, 37°C, NADPH-generating system", "result": "0.55 nmoles/mg microsomal protein/minute"},
      {"measurement": "IC50", "setting": "[5]", "result": 13, "unit": "µM"},
      {"measurement": "stability of 1.3", "setting": "[6]; 100 µM in phosphate buffer pH 7.4, 1 hour at room temperature", "result": "fully stable"}
    ]},
    {"smiles": "CC(C)Cn1c(-c2ccc(P(=O)(O)O)o2)nc2ccc(Cl)cc21", "note": "[6-Chloro-1-isobutyl-2-(2-phosphono-5-furanyl) benzimidazole]", "values": [
      {"measurement": "bioavailability at 24 h", "setting": "[7]", "result": 0.5, "unit": "%"}
    ]},
    {"smiles": "Nc1ncnc2c1ncn2[C@@H]1O[C@H](COP2(=O)OCCC(c3ccncc3)O2)[C@@H](O)[C@@H]1O", "note": "(stereo partly drawn) [Compound 30.1, Adenine-9-beta-D-arabinofuranoside-5'-[1-(4-pyridyl)-1,3-propyl]monophosphate]", "values": [
      {"measurement": "activation of 30.1 to ara-AMP", "setting": "[8]", "result": "does not result in activation"},
      {"measurement": "concentration of prodrug observed in liver", "setting": "[9]; 20 mg/kg i.v., at 20 minutes", "result": "~ 20 nmoles/g"},
      {"measurement": "half-life", "setting": "[9]; rat, liver, iv, 20 mg/kg i.v., read-out: liver half life (converted)", "result": 54, "unit": "min"},
      {"measurement": "half-life", "setting": "[9]; rat, plasma, iv, 20 mg/kg i.v., read-out: plasma half life (converted)", "result": 11.4, "unit": "min"},
      {"measurement": "half-life", "setting": "[9]; rat, plasma, iv, 30.1 in rat, restated in Example S, read-out: plasma half-life", "result": 12, "unit": "min"},
      {"measurement": "clearance", "setting": "[9]; rat, plasma, iv, 20 mg/kg i.v.", "result": 55.7, "unit": "mL/min/kg"},
      {"measurement": "MRT", "setting": "[9]; rat, plasma, iv, 20 mg/kg i.v., read-out: mean residence time", "result": 12.6, "unit": "min"},
      {"measurement": "Vd", "setting": "[9]; rat, plasma, iv, 20 mg/kg i.v., read-out: volume of distribution", "result": 0.7, "unit": "L/kg"},
      {"measurement": "dose excreted at 24 h", "setting": "[9]; rat, urine, iv, 24 hr urine, read-out: urinary (renal) excretion (24hr)", "result": "~58", "unit": "%"},
      {"measurement": "primary p450 isoform responsible for activation in human liver", "setting": "human liver microsomes", "result": "CYP3A4"},
      {"measurement": "rate of formation of ara-AMP", "setting": "recombinant CYP3A4", "result": "3.3 ± 0.5", "unit": "nmoles/ min/ nmole CYP3A4"},
      {"measurement": "amount of araATP per gram of liver over time (Figure 1A)", "setting": "[10]; 30.1 i.v. 10 and 3 mg/kg vs araAMP 10 mg/kg", "result": "Significantly higher liver levels"},
      {"measurement": "ara-hypoxanthine in urine", "setting": "[10]; i.v. 30.1", "result": "Nor was ara-hypoxanthine detected in urine"},
      {"measurement": "ara-hypoxanthine (araH) in plasma", "setting": "[10]; i.v., 30.1 at 10 and 3 mg/kg, ara-AMP at equivalent doses", "result": "virtually no araH; also recorded: not detected"},
      {"measurement": "liver levels of araATP relative to araA or araAMP", "setting": "[10]; i.v., summary statements of Example O", "result": "2-5 fold and 2- to 5 fold"},
      {"measurement": "metabolism / degradation in fresh rat plasma", "setting": "[3]", "result": "not degraded; also recorded: no evidence of metabolism"},
      {"measurement": "reaction rate for the formation of ara-AMP", "setting": "[4]; 250 µM 30.1, 37°C, human liver microsomes", "result": "0.12 nmoles/min/mg of microsomal protein"},
      {"measurement": "Product concentration nmoles/g cells (ara-ATP)", "setting": "isolated rat hepatocytes [11]", "result": "108±4", "unit": "nmoles/g cells"},
      {"measurement": "mortality and obvious signs of toxicity", "setting": "[12]", "result": "safely administered"},
      {"measurement": "stability / decomposition of 30.1", "setting": "[6]; 10 µg/mL in isotonic saline and 100 mM potassium phosphate buffers pH 3, 7 and 9, room temperature, sampled 1, 2, 5, 7 days, HPLC", "result": "stable for at least seven days; also recorded: No decomposition"}
    ]}
  ]
}
